This note sets out measurements from ChEMBL document CHEMBL5329217, “Hesperidin Methyl Chalcone reduces extracellular Aβ(25-35) peptide aggregation and fibrillation and also protects Neuro 2a cells from Aβ(25-35) induced neuronal dysfunction” (Bioorg Med Chem, 2023).

Assay [1] concerns the target Acetylcholinesterase (Electrophorus electricus) (UniProt O42275). Nature of the assay: Inhibition of electric eel AchE using acetylthiocholine iodide as substrate at 100 ug/ml by Ellman's method relative to control. The following applies: dose 100.0 µg/ml. For orientation: DTNB colorimetry detects thiols as they appear.
A short description of assay [2]: Antioxidant activity assessed as free radical scavenging activity at 100 ug/ml by DPPH assay relative to control. Type of assay: functional. Conditions: dose 100.0 µg/ml. In general terms: DPPH is a stable violet radical that fades when it is reduced.
Assay [3] has as its system N2a. Description: Inhibition of Amyloid beta (25 to 35)-induced macromolecular damage in mouse Neuro2a cells assessed as reduction in protein oxidation by measuring protein carbonyl content at 50 ug/ml pretreated for 2 hrs followed by amyloid beta (25 to 35) addition and measured after 24 hrs per mg protein (reference value: 44.06 +/- 1.02 […]). Type of assay: functional. The following applies: dose 50 µg/ml; time 26 hrs.

Assay [4] deals with N2a. Nature of the assay: Inhibition of Amyloid beta (25 to 35)-induced apoptosis in mouse Neuro2a cells assessed as Bax/Bcl2 ratio at 50 ug/ml pretreated for 2 hrs followed by amyloid beta (25 to 35) addition and measured after 24 hrs by Western blot analysis (reference value: 1.09 +/- 0.018). The assay is classed as functional. The following applies: dose 50 µg/ml; time 26 hrs. On the technique in general: Immunoblotting shows a protein as a band on a membrane.

In assay [5] the test system is N2a. Description: Inhibition of Amyloid beta (25 to 35)-induced macromolecular damage in mouse Neuro2a cells assessed as reduction in lipid peroxidation by measuring MDA content at 50 ug/ml pretreated for 2 hrs followed by amyloid beta (25 to 35) addition and measured after 24 hrs per mg protein (reference value: 106.4 +/-1.9 nmol). Type of assay: functional. Conditions: dose 50 µg/ml; time 26 hrs.

The subject of assay [6] is N2a. Nature of the assay: Neuroprotective activity against Amyloid beta (25 to 35)-induced toxicity in mouse Neuro2a cells assessed as non-apoptotic viable cells at 50 ug/ml pretreated for 2 hrs followed by amyloid beta (25 to 35) addition and measured after 24 hrs by AO/EtBr dual staining based fluorescence microscopy (reference value: 53.4 +/-3.88%). Type of assay: functional. Conditions: dose 50 µg/ml; time 26 hrs.

The test system of assay [7] is N2a. Description: Inhibition of Amyloid beta (25 to 35)-induced mitochondrial membrane potential loss in mouse Neuro2a cells at 50 ug/ml pretreated for 2 hrs followed by amyloid beta (25 to 35) addition and measured after 24 hrs by rhodamine 123 staining based fluorescent spectrophotometry. The following applies: dose 50.0 µg/ml, time 26.0 hrs. Type of assay: functional, cell-based.

Assay [8] concerns N2a. Nature of the assay: Inhibition of Amyloid beta (25 to 35)-induced oxidative damage in mouse Neuro2a cells assessed as reduction in ROS production by measuring reduction in fluorescence intensity at 50 ug/ml pretreated for 2 hrs followed by amyloid beta (25 to 35) addition and measured after 24 hrs by DCFH-DA staining -based spectrofluorimetric assay. The following applies: dose 50.0 µg/ml, time 26.0 hrs. The assay is classed as functional, cell-based.

The source made the active and inactive calls. The rule behind the calls is not given here.

For orientation: inhibition means the percentage by which the read-out fell short of the control.

Chain of Acetylcholinesterase (Electrophorus electricus) (O42275 24-633 limits assumed): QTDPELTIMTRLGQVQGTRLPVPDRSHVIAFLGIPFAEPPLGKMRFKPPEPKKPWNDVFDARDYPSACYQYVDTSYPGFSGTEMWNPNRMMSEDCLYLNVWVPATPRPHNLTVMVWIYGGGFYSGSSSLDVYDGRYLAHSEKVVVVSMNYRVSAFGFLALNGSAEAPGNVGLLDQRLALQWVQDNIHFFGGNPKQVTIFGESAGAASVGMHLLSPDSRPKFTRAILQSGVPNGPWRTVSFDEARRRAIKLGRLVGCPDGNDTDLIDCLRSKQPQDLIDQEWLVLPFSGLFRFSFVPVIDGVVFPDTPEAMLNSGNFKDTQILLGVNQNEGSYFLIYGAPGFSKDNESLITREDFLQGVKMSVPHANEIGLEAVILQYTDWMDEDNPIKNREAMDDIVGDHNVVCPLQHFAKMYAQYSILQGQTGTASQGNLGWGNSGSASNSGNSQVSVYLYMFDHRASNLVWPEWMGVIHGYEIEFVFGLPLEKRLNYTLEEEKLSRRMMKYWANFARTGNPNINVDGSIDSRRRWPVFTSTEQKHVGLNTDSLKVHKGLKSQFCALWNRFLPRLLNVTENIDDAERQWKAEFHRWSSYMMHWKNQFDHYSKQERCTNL

Take `COc1ccc([C@@H]2CC(=O)c3c(O)cc(O[C@@H]4O[C@H](CO[C@@H]5O[C@@H](C)[C@H](O)[C@@H](O)[C@H]5O)[C@@H](O)[C@H](O)[C@H]4O)cc3O2)cc1O`: the inhibition in assay [1] stood at 94.4%; in assay [2], 56%.
Turning to `COc1cc2c(cc1OC)C(=O)C(CC1CCN(Cc3ccccc3)CC1)C2` (stereo not drawn) [DONEPEZIL], the Activity came out at 25.1 nmol/mg with N2a [3], 56.6 nmol in the assay with N2a [5] and 79% in the assay on N2a [6]. In addition, the Ratio in the assay on N2a [4] stood at 0.57. Also, the inhibition result in the assay on N2a [7] and in the assay with N2a [8] was “Active” throughout.
